Reference: ChEMBL document CHEMBL1201862, “PubChem BioAssay data set” (2004)
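Growth conditions: 96-well plates. Treatment: test compound, 48 hours, 5 concentrations. Analysis: linear interpolation between bracketing concentrations; unreached endpoints set to highest concentration. GI50: concentration for 50% inhibition of growth.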 The source made the active and inactive calls. Rule as the data show it: active = GI50 up to about 1.1 µM and inactive = higher.

How the values were obtained:
Test in all cases: DTP human tumour cell line panel, 48 h
[1] = test system: ACHN
[2] = test system: CCRF-CEM
[3] = test system: HCT-15
[4] = test system: HL-60
[5] = test system: HOP-92
[6] = test system: HT-29
[7] = test system: K562
[8] = test system: LXFL 529
[9] = test system: MOLT-4
[10] = test system: OVCAR-4
[11] = test system: SK-MEL-28
[12] = test system: SK-MEL-2
[13] = test system: SK-MEL-5
[14] = test system: SK-OV-3
[15] = test system: SN12C
[16] = test system: SW-620
[17] = test system: A498
[18] = test system: BT-549
[19] = test system: MCF7
[20] = test system: UACC-257

Measured: GI50

CN(C)c1ccc(/C=C(\NC(=O)c2ccccc2)c2nc3cncnc3[nH]2)cc1
> 100 µM: [3]
inactive: [1] > 100 µM | [2] > 100 µM | [4] > 100 µM | [5] 41.5 µM | [6] > 100 µM | [7] > 100 µM | [8] > 100 µM | [9] > 100 µM | [10] > 100 µM | [11] > 100 µM | [12] > 100 µM | [13] > 100 µM | [14] > 100 µM | [15] > 100 µM | [16] > 100 µM

Cc1cc(S(=O)(=O)Nc2nc(Nc3ccc(Cl)cc3)n[nH]2)c(S)cc1Cl
inactive: [17] > 100 µM | [1] 37.9 µM | [18] > 100 µM | [2] > 100 µM | [4] > 100 µM | [5] > 100 µM | [6] 81.1 µM | [7] > 100 µM | [19] > 100 µM | [9] > 100 µM | [10] > 100 µM | [11] > 100 µM | [12] > 100 µM | [13] > 100 µM | [14] > 100 µM | [15] > 100 µM | [16] > 100 µM | [20] > 100 µM
4.53 µM: [3]

O=C1C(Cl)C(c2ccc(Cl)cc2)N1n1cnc2ccccc2c1=O (stereo unspecified)
92 µM: [3]
inactive: [1] > 100 µM | [2] 48.6 µM | [4] 39 µM | [6] > 100 µM | [7] 35.6 µM | [8] 72.4 µM | [9] 88.9 µM | [10] > 100 µM | [11] > 100 µM | [12] > 100 µM | [13] > 100 µM | [14] 33.8 µM | [15] > 100 µM | [16] 77.8 µM | [20] > 100 µM

COC(=O)CCc1cc(OC)c2c(c1)[C@H](C(=O)OC)[C@@H](c1ccc(O)c(OC)c1)O2
32.7 µM: [3]
inactive: [17] 31.5 µM | [1] 86.5 µM | [18] 44.8 µM | [2] 33.8 µM | [4] 15.5 µM | [5] > 100 µM | [6] 36.2 µM | [7] 13.4 µM | [19] 49.2 µM | [9] 24.7 µM | [10] 84.1 µM | [11] 41.9 µM | [12] 33.1 µM | [13] 35 µM | [14] 42.8 µM | [15] 56.9 µM | [16] 47.4 µM | [20] > 100 µM

CCOC(=O)c1cc(OC(=O)CC)c2c(OC)ccc(OC)c2c1
25.9 µM: [3]
inactive: [1] 35.2 µM | [6] > 10 µM | [7] 42.3 µM | [8] 37.8 µM | [9] 43.7 µM | [10] 52.4 µM | [11] > 100 µM | [12] > 100 µM | [13] > 100 µM | [14] 21.9 µM | [15] 78.2 µM | [16] 66.5 µM

CC(=O)[C@@]1(O)CC[C@H]2[C@@H]3C[C@H](C)C4=CC(=O)CC[C@]4(C)[C@H]3[C@@H](O)C[C@@]21C
inactive: [17] > 100 µM | [1] > 100 µM | [18] > 100 µM | [2] 14.1 µM | [4] > 100 µM | [5] > 100 µM | [6] > 100 µM | [7] > 100 µM | [19] > 100 µM | [9] 46 µM | [10] > 100 µM | [11] > 100 µM | [12] > 100 µM | [13] > 100 µM | [14] > 100 µM | [15] > 100 µM | [16] > 100 µM | [20] > 100 µM
> 100 µM: [3]

CC(C)(C)S(=O)OC12CC3CC(CC(C3)C1)C2 (stereo unspecified)
> 100 µM: [3]
inactive: [1] > 100 µM | [2] > 100 µM | [6] > 100 µM | [7] > 10 µM | [8] > 100 µM | [9] > 100 µM | [10] > 100 µM | [11] > 100 µM | [12] > 100 µM | [13] > 100 µM | [15] > 100 µM | [16] > 100 µM

CC(C)C1CC(CO)(CNc2cc(Cl)nc(N)n2)C1 (stereo unspecified)
inactive: [17] 4.49 µM | [1] > 100 µM | [18] 65.8 µM | [2] 75.7 µM | [4] 18.1 µM | [5] 45 µM | [6] > 100 µM | [7] 9.57 µM | [19] 15 µM | [9] > 10 µM | [10] 20.7 µM | [11] > 100 µM | [12] 45.9 µM | [13] 3.55 µM | [14] > 100 µM | [15] > 100 µM | [16] > 100 µM | [20] 1.15 µM
22.5 µM: [3]

CC(C)(C)c1cc(C(O)(C(F)(F)F)C(F)(F)F)c2c(c1)C(C(F)(F)F)(C(F)(F)F)OC(c1ccccc1)(C(C)(C)C)N2 (stereo unspecified)
inactive: [1] 3.7 µM | [6] 3.4 µM | [7] 3.07 µM | [8] 3.28 µM | [9] 2.07 µM | [10] 14.4 µM | [11] 9.16 µM | [12] 4.45 µM | [13] 2.45 µM | [14] 2.7 µM | [15] 4.85 µM | [16] 4.5 µM | [20] 4.99 µM
3.56 µM: [3]
active: [5] < 0.01 µM

c1cc(-c2ccsc2-c2ccsc2)cs1
47.8 µM: [3]
inactive: [17] > 100 µM | [1] > 100 µM | [18] 81.1 µM | [2] 50.1 µM | [4] 37.5 µM | [5] > 92.3 µM | [6] > 100 µM | [7] > 27.2 µM | [19] > 60.4 µM | [9] 25.2 µM | [10] > 55.3 µM | [11] > 100 µM | [12] 28.5 µM | [13] 71.1 µM | [14] > 100 µM | [15] > 86.9 µM | [16] > 91.8 µM | [20] > 100 µM

O=C(Nc1nc2ccccc2s1)c1cc([N+](=O)[O-])ccc1Cl
4.63 µM: [3]
active: [2] 0.0107 µM | [19] 0.91 µM
inactive: [17] > 81.7 µM | [1] 17 µM | [18] 5.92 µM | [4] 1.78 µM | [5] 5.89 µM | [6] 5.47 µM | [7] 3.86 µM | [9] 2.81 µM | [10] 8.39 µM | [11] > 32.1 µM | [12] 13.2 µM | [13] 7.6 µM | [14] 16 µM | [15] 9.59 µM | [16] 6.14 µM | [20] 42.2 µM

CCN(CC)c1nnc(CCCCCCCCc2nnc(N(CC)CC)o2)o1
inactive: [17] > 100 µM | [1] > 100 µM | [18] > 100 µM | [2] > 100 µM | [4] > 100 µM | [5] > 100 µM | [6] > 100 µM | [7] > 100 µM | [19] > 100 µM | [9] > 100 µM | [10] > 100 µM | [11] > 100 µM | [12] > 100 µM | [13] > 100 µM | [14] > 100 µM | [15] > 100 µM | [16] > 100 µM | [20] > 100 µM
> 100 µM: [3]
